Data set [1] concerns human prostate cell line (LNCaP). The data set is described as follows: Cytotoxicity of plant extracts, MTS assay, 24 hours. It counts as cell-based. The note with it: extracts 0 to 1000 µg/mL (TEUPOL10 0 to 1500 µg/mL), Dutasteride 0 to 7.93 µg/mL. The protocol: The cytotoxic activity of considered plant extracts was evaluated in a human prostate cell line (LNCaP). The prostate cells were treated with growing concentrations of the plant extracts (from 0 to 1000 µg/mL for the extract of B. Serrata and S. Repens, from 0 to 1500 µg/mL for TEUPOL10) and of the positive control Dutasteride (from 0 µg/mL to 7.93 µg/mL). The treatment was prolonged for 24 hours, time corresponding to the overall duration of the experiments related to PSA and to 5-α-reductase. At the end of the incubation period, the vitality of the prostate cells was evaluated by using the assay MTS, based upon the reduction of the compound MTS tetrazolium by the vital cells to generate a coloured form, which can be quantified by measuring the absorbance thereof at 490-500 nm.
On the technique in general: Formazan colour is commonly taken as a measure of viable cells.

A further data set in a line: in vitro. The format is cell-based. Particulars: human, lncap cells. The protocol:
The cytotoxic activity of the considered plant extracts was evaluated in a human tumour prostate cell line (LNCaP). […] The treatment was prolonged for 6 hours, period of time corresponding to the overall duration of the pre-treatment and of post-treatment thereto the cells were subjected for the subsequent evaluation of the anti-inflammatory activity. At the end of the incubation period, the vitality of the prostate cells was evaluated by using the assay MTS, based upon the reduction of the compound MTS tetrazolium by the vital cells to generate a form of coloured formazan, which can be quantified by measuring the absorbance at 490-500 nm thereof.

Consider `C[C@]12C=CC(=O)N[C@@H]1CC[C@@H]1[C@@H]2CC[C@]2(C)[C@@H](C(=O)Nc3cc(C(F)(F)F)ccc3C(F)(F)F)CC[C@@H]12` [Dutasteride], for which the “adverse effect on vitality of the prostate cells” value in data set [1] is given as “No adverse effect”.

In the data set “in vitro”, `O=C(O)Cc1ccccc1Nc1c(Cl)cccc1Cl` [Diclofenac] gave an MCC at 6 h of 80 µg/mL.
